Tests used:
[1] = competitive slurry experiments with Form A and Form B in 2-butanone; assay type: physicochemical; details: for Sample 1 after 1 day (solid form) / Sample 2 after 2 days (solid form) / Sample 3 after 6 days (solid form) / Result (solid form after slurrying): 2-butanone; for Result (solid form after slurrying): equal amounts of Form A and Form B
Description: Competitive slurry experiments in 2-butanone were performed by suspending equal amounts of Form A (approximately 50 mg, prepared according to Reference Example 1 herein) and Form B (approximately 50 mg, prepared according to Example 1 herein) in 2-butanone (4 mL) and vigorously stirring the obtained suspension using a magnetic stirrer at 20° C.; 40° C., 60° C. and 80° C. respectively.

[2] = equilibrium slurry experiments starting from cabotegravir sodium Form A (solvent-mediated phase transformation, PXRD); assay type: physicochemical; details: for Result (PXRD): 7 days
Description: […] After 7 days, the solids were collected by filtration dried under vacuum (30 mbar) at room temperature for 20 hours and analyzed by PXRD.
PXRD was performed with a PANalytical X'Pert PRO diffractometer equipped with a theta/theta coupled goniometer in transmission geometry, Cu-Kalpha1,2 radiation (wavelength 0.15419 nm) with a focusing mirror and a solid state PIXcel detector. Diffractograms were recorded at a tube voltage of 45 kV and a tube current of 40 mA, applying a stepsize of 0.013° 2-theta with 40 s per step (255 channels) in the angular range of 2° to 40° 2-theta at ambient conditions. A typical precision of the 2-theta values is in the range of ±0.2° 2-Theta, preferably of ±0.1° 2-Theta. Thus, the diffraction peak of cabotegravir sodium Form B that appears for example at 6.8° 2-Theta can appear in the range of from 6.6 to 7.0° 2-Theta, preferably in the range of from 6.7 to 6.9° 2-Theta on most X-ray diffractometers under standard conditions. […]
[…] The suspension was vigorously stirred at 60° C. using a magnetic stirrer. After 2 days, the solid was collected by filtration dried under vacuum (30 mbar) at room temperature for 20 hours and analyzed by PXRD, which confirmed the receipt of Form C.

With `C[C@H]1CO[C@@H]2Cn3cc(C(=O)NCc4ccc(F)cc4F)c(=O)c([O-])c3C(=O)N12.[Na+]` [Form A + Form B, cabotegravir sodium] the “Sample 1 after 1 day (solid form)” value ([1]; 20° C.) was “Form B”, the “Sample 2 after 2 days (solid form)” value ([1]; 20° C.) was “Form B” and the “Sample 3 after 6 days (solid form)” value ([1]; 20° C.) was “Form B”. For the same molecule, the “Sample 1 after 1 day (solid form)” value ([1]; 40° C.) was “Form B”, the “Sample 2 after 2 days (solid form)” value ([1]; 40° C.) was “Form B” and the “Sample 3 after 6 days (solid form)” value ([1]; 40° C.) was “Form B”. For the same molecule, the “Sample 1 after 1 day (solid form)” value ([1]; 60° C.) was “Form B”, the “Sample 2 after 2 days (solid form)” value ([1]; 60° C.) was “Form B” and the “Sample 3 after 6 days (solid form)” value ([1]; 60° C.) was “Form B”. The “Sample 1 after 1 day (solid form)” value ([1]; 80° C.) was “Form B”, the “Sample 2 after 2 days (solid form)” value ([1]; 80° C.) was “Form B” and the “Sample 3 after 6 days (solid form)” value ([1]; 80° C.) was “Form B”. For the same molecule, the “Result (solid form after slurrying)” value ([1]; 20° C.) was “Form B”, the “Result (solid form after slurrying)” value ([1]; 40° C.) was “Form B” and the “Result (solid form after slurrying)” value ([1]; 60° C.) was “Form B”. The “Result (solid form after slurrying)” value ([1]; 80° C.) was “Form B”.

In the case of `C[C@H]1CO[C@@H]2Cn3cc(C(=O)NCc4ccc(F)cc4F)c(=O)c([O-])c3C(=O)N12.[Na+]` [Form A, cabotegravir sodium], the “Result (PXRD)” value ([2]; 1,4-dioxane 5 mL, room temperature) is reported as “Form B”, the “Result (solid form after slurrying)” value ([2]; 1,4-dioxane, room temperature) is reported as “Form B” and the “Result (PXRD)” value ([2]; 2-butanone 5 mL, room temperature) is reported as “Form B”. The “Result (solid form after slurrying)” value ([2]; 2-butanone, 20° C.) was “Form B”, the “Result (solid form after slurrying)” value ([2]; 2-butanone, 40° C.) was “Form B” and the “Result (solid form after slurrying)” value ([2]; 2-butanone, 60° C.) was “Form B”. For the same molecule, the “Result (solid form after slurrying)” value ([2]; 2-butanone, 80° C.) was “Form B”, the “Result (solid form after slurrying)” value ([2]; 2-butanone, room temperature) was “Form B” and the “Result (PXRD)” value ([2]; acetone 5 mL, room temperature) was “Form B”. The “Result (solid form after slurrying)” value ([2]; acetone, room temperature) was “Form B”, the “Result (PXRD)” value ([2]; methyl acetate 5 mL, room temperature) was “Form B” and the “Result (solid form after slurrying)” value ([2]; methyl acetate, room temperature) was “Form B”. The “solid form by PXRD after slurrying” value ([2]; methylisobutyl ketone 20 mL, 60° C., 2 days) was “Form C”, the “Result (solid form after slurrying)” value ([2]; methylisobutyl ketone, 60° C.) was “Form C” and the “Result (solid form after slurrying)” value ([2]; methylisobutyl ketone, room temperature) was “Form C”. The “Result (PXRD)” value ([2]; tetrahydrofuran 5 mL, room temperature) was “Form B” and the “Result (solid form after slurrying)” value ([2]; tetrahydrofuran, room temperature) was “Form B”.

For `C[C@H]1CO[C@@H]2Cn3cc(C(=O)NCc4ccc(F)cc4F)c(=O)c([O-])c3C(=O)N12.[Na+]` [Form B, cabotegravir sodium], the “thermodynamic stability relative to Form A” value ([1]; competitive slurry in 2-butanone, 20 to 80° C.) was “thermodynamically more stable than Form A” and the “thermodynamic stability relative to Form A” value ([2]; slurry experiments of Table 1, at least under the tested conditions) was “thermodynamically more stable than prior art Form A”.

— patent US11040986B2, “Crystalline forms of cabotegravir sodium” (Sandoz AG, priority 2017, dated 2021)
